Results reported in ChEMBL document CHEMBL4622963, “Optimization of Nicotinamides as Potent and Selective IRAK4 Inhibitors with Efficacy in a Murine Model of Psoriasis” (ACS Med Chem Lett, 2020).

How the values were obtained:
[1] = target: T1, Interleukin-1 receptor-associated kinase 4 (Homo sapiens, UniProt Q9NWZ3); experiment: Inhibition of IRAK4 (unknown origin) using FL-IPTSPITTTYFFFKKK peptide and ATP as substrate incubated for 60 mins by fluorescence based caliper assay
T1 sequence (Q9NWZ3 whole entry): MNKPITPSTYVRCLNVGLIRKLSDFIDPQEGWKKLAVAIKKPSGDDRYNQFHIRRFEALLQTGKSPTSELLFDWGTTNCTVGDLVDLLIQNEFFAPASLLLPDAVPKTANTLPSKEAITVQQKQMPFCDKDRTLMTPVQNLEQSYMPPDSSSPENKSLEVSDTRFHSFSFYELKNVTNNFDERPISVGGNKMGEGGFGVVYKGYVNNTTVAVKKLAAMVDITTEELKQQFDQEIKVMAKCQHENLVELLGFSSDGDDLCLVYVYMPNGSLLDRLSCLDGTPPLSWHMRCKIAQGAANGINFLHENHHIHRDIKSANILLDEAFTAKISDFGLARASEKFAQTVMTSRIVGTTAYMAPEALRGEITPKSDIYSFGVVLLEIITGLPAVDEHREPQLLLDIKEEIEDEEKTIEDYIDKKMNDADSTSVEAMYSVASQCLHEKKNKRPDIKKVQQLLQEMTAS

[2] = Drug uptake in LTA-treated BALB/c mouse serum at 50 mg/kg, po treated 30 mins prior to LTA-stimulation and measured after 90 mins by LC-MS analysis; type: ADME, organism-based; settings: read-out: Drug uptake
[3] = Drug uptake in LTA-treated BALB/c mouse serum at 25 mg/kg, po treated 30 mins prior to LTA-stimulation and measured after 90 mins by LC-MS analysis; type: ADME, organism-based; settings: read-out: Drug uptake
Homo sapiens [4] = organism: Homo sapiens; experiment: Selectivity index, ratio of IC50 for N-terminal His6-tagged human full length recombinant LCK expressed in baculovirus infected Sf21 cells to IC50 for IRAK4 (unknown origin)
[5] = Permeability across apical to basolateral side in human Caco2 cells; settings: Caco-2
[6] = target: T2, Interleukin-1 receptor-associated kinase 4 (Mus musculus, UniProt Q8R4K2); experiment: Inhibition of IRAK4 in mouse whole blood; type: tissue-based
T2 sequence (Q8R4K2 whole entry): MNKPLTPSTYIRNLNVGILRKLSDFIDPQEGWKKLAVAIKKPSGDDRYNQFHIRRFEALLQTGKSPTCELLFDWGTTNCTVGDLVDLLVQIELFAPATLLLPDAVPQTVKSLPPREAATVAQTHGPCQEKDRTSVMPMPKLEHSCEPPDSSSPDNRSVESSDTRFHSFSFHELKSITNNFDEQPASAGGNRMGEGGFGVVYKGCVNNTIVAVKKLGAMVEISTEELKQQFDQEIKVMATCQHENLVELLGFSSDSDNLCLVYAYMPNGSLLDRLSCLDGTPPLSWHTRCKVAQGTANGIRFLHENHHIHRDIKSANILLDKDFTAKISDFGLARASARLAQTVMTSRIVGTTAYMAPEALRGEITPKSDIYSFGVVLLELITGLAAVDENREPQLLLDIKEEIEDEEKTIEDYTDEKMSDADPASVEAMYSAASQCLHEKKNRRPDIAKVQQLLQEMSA

[7] = Stability in mouse liver microsomes assessed as parent compound remaining measured after 10 mins; type: ADME, Microsome; settings: read-out: Stability
[8] = Oral bioavailability in mouse at 10 mg/kg administered via gavage measured up to 24 hrs by LC-MS analysis; type: ADME, organism-based; settings: in vivo
[9] = target: T1, Interleukin-1 receptor-associated kinase 4; experiment: Inhibition of IRAK4 in human whole blood assessed as inhibition of LTA-induced IL-6 production preincubated for 30 mins followed by LTA-stimulation and measured after 5 hrs by ELISA; type: tissue-based
[10] = AUC in mouse at 2 mg/kg, iv administered as infusion measured up to 24 hrs by LC-MS analysis; type: ADME, organism-based; design: time < 24 hr, dose 2 mg/kg, route intravenous; settings: in vivo
[11] = Time during which drug concentration exceeds IC50 for IRAK4 in mouse whole blood in mouse at 10 mg/kg, po; type: ADME, organism-based; settings: in vivo
[12] = target: T1, Interleukin-1 receptor-associated kinase 4; experiment: Inhibition of IRAK4 in human PBMC assessed as inhibition of LTA-induced IL-6 production preincubated for 30 mins followed by LTA-stimulation and measured after 5 hrs by ELISA; type: cell-based
[13] = target: T3, Interleukin-1 receptor-associated kinase 4 (Mus musculus) (UniProt Q8R4K2); experiment: In vivo Inhibition of IRAK4 in BALB/c mouse assessed as suppression of TLR2-mediated LTA-induced IL-6 level in serum at 10 mg/kg, po treated 30 mins prior to LTA-stimulation and measured after 90 mins by ELISA relative to control; type: functional, organism-based
T3 sequence (whole entry): T2 sequence (Q8R4K2 whole entry)

[14] = target: T3, Interleukin-1 receptor-associated kinase 4 (Mus musculus); experiment: In vivo Inhibition of IRAK4 in BALB/c mouse assessed as suppression of TLR2-mediated LTA-induced IL-6 level in serum at 50 mg/kg, po treated 30 mins prior to LTA-stimulation and measured after 90 mins by ELISA relative to control; type: functional, organism-based
[15] = Volume of distribution at steady state in mouse at 2 mg/kg, iv administered as infusion or 10 mg/kg, po via gavage measured up to 24 hrs by LC-MS analysis; type: ADME, organism-based; settings: in vivo, read-out: Vdss
[16] = Half life in mouse at 2 mg/kg, iv administered as infusion or 10 mg/kg, po via gavage measured up to 24 hrs by LC-MS analysis; type: ADME, organism-based; settings: in vivo
[17] = AUC in mouse at 10 mg/kg, po via gavage measured up to 24 hrs by LC-MS analysis; type: ADME, organism-based; design: time < 24 hr, dose 10 mg/kg, route oral; settings: in vivo
[18] = Drug uptake in LTA-treated BALB/c mouse serum at 10 mg/kg, po treated 30 mins prior to LTA-stimulation and measured after 90 mins by LC-MS analysis; type: ADME, organism-based; settings: read-out: Drug uptake
[19] = Clearance in mouse at 2 mg/kg, iv administered as infusion or 10 mg/kg, po via gavage measured up to 24 hrs by LC-MS analysis; type: ADME, organism-based; settings: in vivo
[20] = Stability in human liver microsomes assessed as parent compound remaining; type: ADME, Microsome
[21] = target: T3, Interleukin-1 receptor-associated kinase 4 (Mus musculus); experiment: In vivo Inhibition of IRAK4 in BALB/c mouse assessed as suppression of TLR2-mediated LTA-induced IL-6 level in serum at 25 mg/kg, po treated 30 mins prior to LTA-stimulation and measured after 90 mins by ELISA relative to control; type: functional, organism-based
[22] = target: T4, Mast/stem cell growth factor receptor Kit (Homo sapiens, UniProt P10721); experiment: Inhibition of cKit (unknown origin) by functional based assay
[23] = Oral bioavailability in mouse at 2 mg/kg administered via gavage measured up to 24 hrs by LC-MS analysis; type: ADME, organism-based; settings: in vivo
[24] = AUC in mouse at 2 mg/kg, po via gavage measured up to 24 hrs by LC-MS analysis; type: ADME, organism-based; design: time < 24 hr, dose 2 mg/kg, route oral; settings: in vivo
[25] = target: TRAF2 and NCK-interacting protein kinase (Homo sapiens, UniProt Q9UKE5); experiment: Inhibition of human wild type partial length TNIK (D4-K311 residues) expressed in bacterial expression system
[26] = Half life in mouse at 2 mg/kg, iv administered as infusion or 2 mg/kg, po via gavage measured up to 24 hrs by LC-MS analysis; type: ADME, organism-based; settings: in vivo
[27] = target: Mast/stem cell growth factor receptor Kit (Homo sapiens, UniProt P10721, V559D); experiment: Inhibition of recombinant human partial length cKit Val559Asp mutant expressed in bacterial expression system
[28] = Volume of distribution at steady state in mouse at 2 mg/kg, iv administered as infusion or 2 mg/kg, po via gavage measured up to 24 hrs by LC-MS analysis; type: ADME, organism-based; settings: in vivo, read-out: Vdss
[29] = target: T4, Mast/stem cell growth factor receptor Kit; experiment: Inhibition of recombinant N-terminal GST-tagged human cKit (544 to end residues) expressed in baculovirus infected Sf21 cells
[30] = Clearance in mouse at 2 mg/kg, iv administered as infusion or 2 mg/kg, po via gavage measured up to 24 hrs by LC-MS analysis; type: ADME, organism-based; settings: in vivo
[31] = target: T5, Mitogen-activated protein kinase kinase kinase 7 (Homo sapiens, UniProt O43318); experiment: Inhibition of human wild type partial length TAK1 (1 to 303 residues) expressed in mammalian expression system
T5 sequence (O43318 whole entry): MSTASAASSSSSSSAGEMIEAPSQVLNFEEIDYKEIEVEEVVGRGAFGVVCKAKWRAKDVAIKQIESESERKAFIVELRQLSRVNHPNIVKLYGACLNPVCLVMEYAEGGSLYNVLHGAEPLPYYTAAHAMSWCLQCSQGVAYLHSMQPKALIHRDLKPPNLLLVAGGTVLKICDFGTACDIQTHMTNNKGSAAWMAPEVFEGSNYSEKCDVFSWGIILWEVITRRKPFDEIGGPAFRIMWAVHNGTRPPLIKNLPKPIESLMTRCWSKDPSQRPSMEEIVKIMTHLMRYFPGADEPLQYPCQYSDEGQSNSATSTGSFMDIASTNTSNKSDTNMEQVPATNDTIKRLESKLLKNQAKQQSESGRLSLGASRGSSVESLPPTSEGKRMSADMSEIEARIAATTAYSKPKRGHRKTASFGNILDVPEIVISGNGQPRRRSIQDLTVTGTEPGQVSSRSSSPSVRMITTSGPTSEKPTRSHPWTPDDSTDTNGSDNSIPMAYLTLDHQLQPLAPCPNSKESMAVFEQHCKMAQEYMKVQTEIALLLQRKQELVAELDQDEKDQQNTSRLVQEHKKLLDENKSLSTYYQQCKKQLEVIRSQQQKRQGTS

Homo sapiens [32] = organism: Homo sapiens; experiment: Selectivity index, ratio of IC50 for recombinant N-terminal GST-tagged human cKit (544 to end residues) expressed in baculovirus infected Sf21 cells to IC50 for IRAK4 (unknown origin)
[33] = target: Mast/stem cell growth factor receptor Kit (Homo sapiens, UniProt P10721, V559D/T670I); experiment: Inhibition of recombinant human partial length cKit Val559Asp/Thr670Ile double mutant expressed in bacterial expression system
[34] = AUC in mouse at 3 mg/kg, po via gavage measured up to 24 hrs by LC-MS analysis; type: ADME, organism-based; design: dose 3 mg/kg, time < 24 hr, route oral; settings: in vivo
[35] = Half life in mouse at 2 mg/kg, iv administered as infusion or 3 mg/kg, po via gavage measured up to 24 hrs by LC-MS analysis; type: ADME, organism-based; settings: in vivo
[36] = Volume of distribution at steady state in mouse at 2 mg/kg, iv administered as infusion or 3 mg/kg, po via gavage measured up to 24 hrs by LC-MS analysis; type: ADME, organism-based; settings: in vivo, read-out: Vdss
[37] = Oral bioavailability in mouse at 3 mg/kg administered via gavage measured up to 24 hrs by LC-MS analysis; type: ADME, organism-based; settings: in vivo
[38] = Clearance in mouse at 2 mg/kg, iv administered as infusion or 3 mg/kg, po via gavage measured up to 24 hrs by LC-MS analysis; type: ADME, organism-based; settings: in vivo

T4 sequence (P10721 whole entry): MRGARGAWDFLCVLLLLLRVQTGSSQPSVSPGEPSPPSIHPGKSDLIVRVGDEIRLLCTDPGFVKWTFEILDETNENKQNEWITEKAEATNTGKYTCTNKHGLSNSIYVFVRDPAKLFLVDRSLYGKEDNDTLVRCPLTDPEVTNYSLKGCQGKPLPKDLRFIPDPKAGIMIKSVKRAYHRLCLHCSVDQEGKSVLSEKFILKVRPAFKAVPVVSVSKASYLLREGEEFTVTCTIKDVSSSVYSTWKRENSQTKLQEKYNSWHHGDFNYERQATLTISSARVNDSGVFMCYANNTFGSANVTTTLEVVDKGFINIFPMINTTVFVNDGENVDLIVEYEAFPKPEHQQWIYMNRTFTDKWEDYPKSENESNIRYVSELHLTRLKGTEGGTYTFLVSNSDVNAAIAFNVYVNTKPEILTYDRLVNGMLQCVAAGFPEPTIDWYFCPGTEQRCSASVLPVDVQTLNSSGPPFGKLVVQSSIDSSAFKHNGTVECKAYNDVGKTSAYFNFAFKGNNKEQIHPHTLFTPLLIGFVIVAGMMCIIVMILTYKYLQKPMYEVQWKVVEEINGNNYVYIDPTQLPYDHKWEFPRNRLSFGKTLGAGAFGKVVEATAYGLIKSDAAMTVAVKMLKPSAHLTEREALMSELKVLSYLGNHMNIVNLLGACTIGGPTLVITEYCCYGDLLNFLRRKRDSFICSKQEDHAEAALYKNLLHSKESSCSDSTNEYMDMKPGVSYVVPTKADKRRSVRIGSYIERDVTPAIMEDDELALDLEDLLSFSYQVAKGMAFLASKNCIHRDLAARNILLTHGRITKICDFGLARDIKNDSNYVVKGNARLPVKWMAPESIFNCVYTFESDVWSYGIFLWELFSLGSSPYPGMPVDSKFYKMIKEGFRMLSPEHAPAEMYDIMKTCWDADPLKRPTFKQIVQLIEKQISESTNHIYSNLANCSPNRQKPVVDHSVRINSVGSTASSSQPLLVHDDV
Sequence of Mast/stem cell growth factor receptor Kit (Homo sapiens, UniProt P10721, V559D) (P10721 26-976 V559D limits assumed): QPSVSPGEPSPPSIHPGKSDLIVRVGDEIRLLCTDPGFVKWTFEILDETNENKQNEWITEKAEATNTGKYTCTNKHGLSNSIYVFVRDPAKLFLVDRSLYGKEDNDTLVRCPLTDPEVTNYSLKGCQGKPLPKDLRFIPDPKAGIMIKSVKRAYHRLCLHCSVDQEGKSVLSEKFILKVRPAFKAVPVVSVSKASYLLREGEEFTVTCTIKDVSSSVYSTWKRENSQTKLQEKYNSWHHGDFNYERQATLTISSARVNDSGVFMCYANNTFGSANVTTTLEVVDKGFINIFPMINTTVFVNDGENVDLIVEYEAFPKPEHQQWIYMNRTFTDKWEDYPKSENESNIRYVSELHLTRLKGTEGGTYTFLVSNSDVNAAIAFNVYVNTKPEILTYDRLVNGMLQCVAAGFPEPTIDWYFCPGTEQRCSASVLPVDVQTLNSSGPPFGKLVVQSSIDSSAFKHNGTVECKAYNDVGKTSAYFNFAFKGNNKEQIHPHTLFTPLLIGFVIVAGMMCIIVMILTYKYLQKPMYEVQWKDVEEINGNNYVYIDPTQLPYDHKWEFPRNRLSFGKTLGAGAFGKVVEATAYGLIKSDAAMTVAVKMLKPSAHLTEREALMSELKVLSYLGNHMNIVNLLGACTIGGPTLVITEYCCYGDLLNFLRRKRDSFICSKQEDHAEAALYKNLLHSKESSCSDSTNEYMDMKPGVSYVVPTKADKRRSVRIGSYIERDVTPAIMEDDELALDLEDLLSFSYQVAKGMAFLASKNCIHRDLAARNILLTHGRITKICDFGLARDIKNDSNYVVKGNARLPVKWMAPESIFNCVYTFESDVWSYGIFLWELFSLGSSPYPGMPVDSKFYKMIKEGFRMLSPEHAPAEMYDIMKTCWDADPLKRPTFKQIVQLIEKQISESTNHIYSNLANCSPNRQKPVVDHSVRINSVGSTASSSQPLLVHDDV
Sequence of Mast/stem cell growth factor receptor Kit (Homo sapiens, UniProt P10721, V559D/T670I) (P10721 26-976 V559D/T670I limits assumed): as the sequence (P10721 26-976 V559D limits assumed) above, with T645I counted along it
Sequence of TRAF2 and NCK-interacting protein kinase (Q9UKE5 whole entry, the tested form may be a part): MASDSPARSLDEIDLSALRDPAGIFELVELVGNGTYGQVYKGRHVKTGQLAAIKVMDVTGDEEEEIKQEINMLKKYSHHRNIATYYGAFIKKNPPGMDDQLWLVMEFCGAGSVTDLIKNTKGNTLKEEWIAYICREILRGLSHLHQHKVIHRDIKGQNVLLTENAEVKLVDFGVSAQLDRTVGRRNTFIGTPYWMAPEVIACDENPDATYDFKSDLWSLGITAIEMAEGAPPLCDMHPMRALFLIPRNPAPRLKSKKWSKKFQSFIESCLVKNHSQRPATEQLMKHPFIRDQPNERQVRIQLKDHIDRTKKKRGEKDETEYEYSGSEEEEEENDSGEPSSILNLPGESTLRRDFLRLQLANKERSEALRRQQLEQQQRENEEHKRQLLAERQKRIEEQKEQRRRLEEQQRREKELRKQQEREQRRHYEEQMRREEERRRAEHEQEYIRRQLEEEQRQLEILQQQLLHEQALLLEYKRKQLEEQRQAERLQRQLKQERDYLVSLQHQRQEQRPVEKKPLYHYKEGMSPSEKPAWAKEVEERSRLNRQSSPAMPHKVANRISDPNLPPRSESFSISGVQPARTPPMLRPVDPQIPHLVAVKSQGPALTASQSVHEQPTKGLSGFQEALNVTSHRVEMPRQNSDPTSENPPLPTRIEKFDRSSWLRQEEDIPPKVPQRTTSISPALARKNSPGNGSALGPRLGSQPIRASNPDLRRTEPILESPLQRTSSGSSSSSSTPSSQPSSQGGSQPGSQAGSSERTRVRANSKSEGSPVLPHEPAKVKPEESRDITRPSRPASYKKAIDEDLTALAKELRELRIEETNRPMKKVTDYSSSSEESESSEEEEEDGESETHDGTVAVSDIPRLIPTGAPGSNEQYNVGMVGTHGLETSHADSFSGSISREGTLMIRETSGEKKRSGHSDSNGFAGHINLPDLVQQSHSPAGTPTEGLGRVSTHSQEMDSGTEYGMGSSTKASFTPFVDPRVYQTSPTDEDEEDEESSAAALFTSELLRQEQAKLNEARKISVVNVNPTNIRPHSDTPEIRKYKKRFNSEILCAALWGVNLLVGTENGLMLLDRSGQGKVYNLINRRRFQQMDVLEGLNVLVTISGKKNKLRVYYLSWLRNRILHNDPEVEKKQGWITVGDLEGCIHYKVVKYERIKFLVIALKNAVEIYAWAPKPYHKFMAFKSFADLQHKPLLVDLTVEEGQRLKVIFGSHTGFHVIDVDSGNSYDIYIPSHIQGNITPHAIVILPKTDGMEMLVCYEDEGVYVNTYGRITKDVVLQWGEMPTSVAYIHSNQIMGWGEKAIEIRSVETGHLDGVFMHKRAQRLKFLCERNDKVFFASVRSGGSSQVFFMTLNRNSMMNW

CC(C)(O)[C@H](F)CNC(=O)c1cnc(Nc2ccc3ncsc3c2)cc1NC1CC1
IC50 [1]: 2.4 nM | concentration at 1.5 h [2]: 9.6 µM | concentration at 1.5 h [3]: 4.5 µM | Ratio IC50 (Homo sapiens [4]): 170 | Papp A→B [5]: 8.1 ×10⁻⁶ cm/s | IC50 [6]: 240 nM | remaining at 10 min [7]: 89% | bioavailability [8]: 40% | IC50 [9]: 810 nM | AUC at 24 h [10]: 1.6 µM·h | T>IC50 [11]: <= 3 hr | IC50 [12]: 230 nM | inhibition [13]: 50% | inhibition [14]: 99% | Vd [15]: 2.1 L/kg | half-life [16]: 2.2 h | AUC at 24 h [17]: 3.3 µM·h | concentration at 1.5 h [18]: 0.41 µM | clearance [19]: 47 mL/min/kg | Stability [20]: 90% | inhibition [21]: 95%

CC(C)Nc1cc(Nc2ccn3nccc3n2)ncc1C(=O)NC[C@@H](F)C(C)(C)O
IC50 [22]: 170 nM | IC50 [1]: 3.2 nM | Ratio IC50 (Homo sapiens [4]): 130 | bioavailability [23]: 36% | Papp A→B [5]: 6.9 ×10⁻⁶ cm/s | remaining at 10 min [7]: 89% | AUC at 24 h [24]: 0.9 µM·h | IC50 [25]: 8 nM | IC50 [9]: 340 nM | AUC at 24 h [10]: 2.4 µM·h | half-life [26]: 2 h | inhibition (INH) [27]: Active | IC50 [12]: 100 nM | Vd [28]: 3 L/kg | IC50 [29]: 24 nM | clearance [30]: 33 mL/min/kg | IC50 [31]: 190 nM | Ratio IC50 (Homo sapiens [32]): 8 | inhibition (INH) [33]: Not Active | Stability [20]: 100%

CC(C)Nc1cc(Nc2ccc3nonc3c2)ncc1C(=O)NC[C@@H](F)C(C)(C)O
IC50 [1]: 8.7 nM | AUC at 24 h [34]: 4.6 µM·h | half-life [35]: 3.6 h | Ratio IC50 (Homo sapiens [4]): 190 | Papp A→B [5]: 3.8 ×10⁻⁶ cm/s | remaining at 10 min [7]: 89% | IC50 [9]: 210 nM | Vd [36]: 3.2 L/kg | AUC at 24 h [10]: 4.7 µM·h | IC50 [12]: 640 nM | bioavailability [37]: 65% | clearance [38]: 14 mL/min/kg | Ratio IC50 (Homo sapiens [32]): 420 | Stability [20]: 93%
